We go through 15 molecules from ChEMBL document CHEMBL1131681, “Thiazolo[4,5-d]pyrimidine thiones and -ones as corticotropin-releasing hormone (CRH-R1) receptor antagonists” (Bioorg Med Chem Lett, 1999).

The term Ki denotes a dissociation constant, usually derived from enzyme kinetics or from competition with a known ligand.

For this experiment, the target named is T1, Corticotropin-releasing factor receptor 1 (Homo sapiens, UniProt P34998).
T1 sequence (P34998 whole entry): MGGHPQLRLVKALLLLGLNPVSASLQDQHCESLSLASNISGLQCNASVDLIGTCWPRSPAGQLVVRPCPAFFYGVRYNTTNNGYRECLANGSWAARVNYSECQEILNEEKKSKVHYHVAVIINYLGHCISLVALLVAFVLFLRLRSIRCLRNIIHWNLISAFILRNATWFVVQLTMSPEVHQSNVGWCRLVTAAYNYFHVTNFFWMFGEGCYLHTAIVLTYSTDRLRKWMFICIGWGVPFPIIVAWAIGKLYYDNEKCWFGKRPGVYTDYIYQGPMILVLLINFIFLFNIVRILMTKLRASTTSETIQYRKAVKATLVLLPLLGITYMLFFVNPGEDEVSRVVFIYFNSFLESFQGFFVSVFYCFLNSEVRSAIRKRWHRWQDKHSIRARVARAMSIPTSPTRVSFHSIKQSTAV
Description: Binding affinity against human Corticotropin releasing factor receptor 1 expressed in HEK 293E cells using [125I]TYR-oCRH. The format is cell-based, HEK293.
Take `CCN(CC)c1nc(C)nc2c1sc(=S)n2-c1c(C)cc(C)cc1C`: the inhibitory constant (Ki) stood at 9.2 nM.
To `CCC(C)N(c1nc(C)nc2c1sc(=S)n2-c1ccc(C(C)C)cc1Br)C(C)CC` (stereo not given) belongs 45.4 nM; to `CCN(CC)c1nc(C)nc2c1sc(=O)n2-c1c(C)cc(C)cc1C`, 14.5 nM; to `COCCN(CCOC)c1nc(C)nc2c1sc(=S)n2-c1ccc(C(C)C)cc1Br`, 6.6 nM.
To `CCCN(CC1CC1)c1nc(C)nc2c1sc(=S)n2-c1ccc(C(C)C)cc1Br` belongs 12.6 nM; to `CCCN(CC1CC1)c1nc(C)nc2c1sc(=O)n2-c1ccc(C(C)C)cc1Br`, 4.1 nM.
In the case of `CCCN(CC1CC1)c1nc(C)nc2c1sc(=S)n2-c1c(C)cc(C)cc1C` it was 13.1 nM; in that of `CCN(CC)c1nc(C)nc2c1sc(=O)n2-c1ccc(C(C)C)cc1Br`, 9.4 nM.
`CCN(CC)c1nc(C)nc2c1sc(=S)n2-c1ccc(C(C)C)cc1Br` came in with a Ki of 4.1 nM. This Ki lies about 2.3-fold lower than the previous one.
`COCCN(CCOC)c1nc(C)nc2c1sc(=S)n2-c1c(C)cc(C)cc1C` showed an inhibition constant (Ki) of 8.6 nM.
`COCCN(CCOC)c1nc(C)nc2c1sc(=O)n2-c1ccc(C(C)C)cc1Br` returned a Ki of 14.5 nM. This Ki lies about 1.7-fold higher than the previous one.
In the case of `Cc1nc(N2CCOCC2)c2sc(=S)n(-c3ccc(C(C)C)cc3Br)c2n1` it was 122 nM.
To `CCCN(CC1CC1)c1nc(C)nc2c1sc(=O)n2-c1c(C)cc(C)cc1C` belongs 16.2 nM.
To `CCCCN(CC)c1nc(C)nc2c1sc(=S)n2-c1ccc(C(C)C)cc1Br` belongs 23.9 nM.
For the molecule `COCCN(CCOC)c1nc(C)nc2c1sc(=O)n2-c1c(C)cc(C)cc1C`, affinity was put at a Ki of 5 nM.
